Reference: PMC10605449 (Biosensors, 2023)
Numbering of substitutions follows the chain as printed.

Assays:
Format in all cases: binding
MARK3(48-370) Mutant 5 = target: T1, MARK3(48-370) Mutant 5 (Homo sapiens, UniProt P27448, A68G/E139D/F199L/F67Y/G137R/I62L/L128I/L130I/N66T/T204H/V116I/V205Q); experiment: SPR Extract2Chip, cellular biotinylated MARK3 Mutant 5, GSK461364A injected; conditions: 15 °C
T1 construct: made in house; host or cells: E. coli Rosetta 2, co-expressed with BirA; soluble lysate used without purification
T1 sequence (P27448 48-370 I62L/N66T/F67Y/A68G/V116I/L128I/L130I/G137R/E139D/F199L/T204H/V205Q): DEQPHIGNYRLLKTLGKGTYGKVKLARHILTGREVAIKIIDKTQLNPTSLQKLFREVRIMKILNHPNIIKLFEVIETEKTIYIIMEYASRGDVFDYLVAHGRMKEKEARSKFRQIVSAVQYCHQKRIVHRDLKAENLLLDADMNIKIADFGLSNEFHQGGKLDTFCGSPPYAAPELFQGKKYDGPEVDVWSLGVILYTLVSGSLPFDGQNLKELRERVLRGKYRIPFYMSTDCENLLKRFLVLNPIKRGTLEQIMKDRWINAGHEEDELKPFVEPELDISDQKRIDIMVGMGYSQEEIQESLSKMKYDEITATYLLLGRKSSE
Experimental: (§1) The cellular biotinylation of MARK3(48-370) kinase domain mutants followed the same approach as described for CypD. The 6 different mutants were expressed in Rosetta^TM 2 in PB media, and induced with 100 µM IPTG overnight at 18 °C.
(§2) The cellular biotinylated MARK3 NUAK2-like mutants were immobilized using the approach described in Section 2.5.2. The soluble cell lysates were diluted to a final concentration of 200 µg/mL, then injected over the neutravidin surfaces for 200 or 1400 s in order to reach 1000 to 2300 RU.
(§3) The interaction analysis cycles consisted of 140 s of sample injection followed by 350 to 600 s of running buffer flow. The running buffer was composed of 20 mM HEPES pH 7.4, 100 mM NaCl, 5 mM MgCl2, 1 mM EGTA, 1 mM DTT, 0.05% Tween-20, and 2% DMSO, and the experiment was performed at 15 °C.
(§4) All sensorgrams were processed by first subtracting the binding response recorded from the control surface (reference spot, where only the avidin protein is immobilized), followed by subtraction of the buffer blank injection from the reaction spot. All datasets were fitted to a simple 1:1 Langmuir interaction model to determine the kinetic rate constants, and the interaction affinity was additionally calculated at a steady state when applicable. […]

MARK3(48-370) Mutant 2 = target: T2, MARK3(48-370) Mutant 2 (Homo sapiens, UniProt P27448, E139D/I62L/L128I/L130I/T204H/V116I/V205Q); experiment: SPR Extract2Chip, cellular biotinylated MARK3 Mutant 2, GSK461364A injected; conditions: 15 °C
T2 construct: made in house; host or cells: E. coli Rosetta 2, co-expressed with BirA; soluble lysate used without purification
T2 sequence (P27448 48-370 I62L/V116I/L128I/L130I/E139D/T204H/V205Q): T1 sequence (P27448 48-370 I62L/N66T/F67Y/A68G/V116I/L128I/L130I/G137R/E139D/F199L/T204H/V205Q) with T19N, Y20F, G21A, R90G, L152F
Experimental: as §1, §2, §3, §4

MARK3(48-370) = target: T3, MARK3(48-370) (Homo sapiens, UniProt P27448); experiment: SPR, pure MARK3(48-370) WT immobilized by amine coupling, GSK461364A injected
T3 construct: The purified His6-TEV-MARK3(48-370) was immobilized using the same approach as GST-NUAK2(1-628); HRV3C site (C, cleaved yes); AviTag (C, cleaved yes); made in house
T3 sequence (P27448 48-370): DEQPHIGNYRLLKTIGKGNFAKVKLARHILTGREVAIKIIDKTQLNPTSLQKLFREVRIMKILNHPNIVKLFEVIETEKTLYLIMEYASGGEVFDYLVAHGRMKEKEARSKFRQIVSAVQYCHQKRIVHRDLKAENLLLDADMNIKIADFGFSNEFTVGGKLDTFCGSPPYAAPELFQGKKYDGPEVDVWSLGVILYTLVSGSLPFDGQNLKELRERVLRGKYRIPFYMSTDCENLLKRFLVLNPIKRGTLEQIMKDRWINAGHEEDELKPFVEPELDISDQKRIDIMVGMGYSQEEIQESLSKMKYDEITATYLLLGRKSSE
Experimental: as §3
All sensorgrams were processed by first subtracting the binding response recorded from the control surface (reference spot, where only the avidin protein is immobilized), followed by subtraction of the buffer blank injection from the reaction spot. All datasets were fitted to a simple 1:1 Langmuir interaction model to determine the kinetic rate constants, and the interaction affinity was additionally calculated at a steady state when applicable. In cases where small molecules were present during the assay, a DMSO solvent correction (1–3%) was applied to account for variations in bulk signal and to achieve high-quality data. The experiments with immobilized purified proteins were performed on a Biacore 4000 (Cytiva, Uppsala, Sweden), and the interaction was evaluated using the provided Biacore 4000 evaluation software, while the experiments with soluble cell lysates on a Biacore T200 (Cytiva, Uppsala, Sweden) used the provided Biacore T200 evaluation software. All SPR experiments were performed in duplicate.

C[C@@H](Oc1cc(-n2cnc3ccc(CN4CCN(C)CC4)cc32)sc1C(N)=O)c1ccccc1C(F)(F)F [GSK461364A]
kd ± SD (MARK3(48-370) Mutant 5): 0.035 ± 0.012 s⁻¹
kd ± SD (MARK3(48-370) Mutant 2): 0.081 ± 0.015 s⁻¹
Binding behavior (MARK3(48-370)): transient binding behavior
